Test [1] deals with naive CD4^+CD25^- T cells. Kind of test: Treg induction assay. Type of test: cell-based. The following applies: Exe-4 (1nM), 5 days. The method, then: Naive CD4^+ CD25^- T cells were selected and activated for 5 days with 1 µg/ml of plate-bound […] anti-CD3 and anti-CD28 antibodies (BD Biosciences). Cells were cultured for 5-days in the presence of IL-2 (10ng/ml; R&D Systems) and TGFβ (2ng/mL; R&D Systems), anti-IL-4 (0.5µg/ml; PeproTech) and anti-IFNγ (2µg/mL; PeproTech) and were treated with Exe-4 (1nM) or left untreated. Then, cells were washed, pulsed for 4-hrs with phorbol myristate acetate (PMA; 50ng/mL; Sigma-Aldrich), ionomycin (500ng/mL; Sigma-Aldrich) and Golgi-stop (1.0µl/mL; BD Biosciences) and then analyzed by FACSCelesta (BD Biosciences) for the expression of Foxp3, Tbet and RoryT as previously reported (38).

Test [2] has as its system GLP-1R^pos and GLP-1R^neg CD3^+ T cells. Description: Transwell migration assay toward SDF-1, GLP-1Rpos and GLP-1Rneg CD3+ T cells. It is filed as cell-based, C57BL/6 mice. The following applies: GLP-1R^neg CD3^+ T cells only, Exe-4 (1 nM), SDF-1 gradient. The method, then:
Transwell migration assays were performed on GLP-1R^pos and GLP-1R^neg CD3^+ cells or respectively untransduced-mock CD3^+ T cells or pmY-GLP-1R transduced CD3^+ T cells, freshly isolated or activated with anti-CD3/CD28 (0.5 µg /ml each) in the presence or not of Exe-4 (1 nM). Chemotaxis assessments via transwell migration assay were performed using polycarbonate membranes with 5 µm pores (Corning) in accordance with the manufacturer's instructions and as previously published (42). Cells were washed, re-suspended in migration media (RPMI), and added to the upper chamber of the plate, while migration media containing 0 or 50 ng/mL SDF-1 (R&D Systems) was added to the bottom chamber. Treated cells were incubated over night at 37°C to migrate through the polycarbonate membrane into the bottom chamber. Input cell counts were obtained by flow cytometry with a BD FACSCelesta (BD, Biosciences) as well as cell counts of migrated cells in the lower chambers. Migration percentage was calculated as the number of cells in the lower chamber (migrated) compared to total input cell count for three separate wells. Mean migration percentages and standard deviations (SD) were calculated across the different donor cell lots. Analysis of lower chambers without SDF-1 (negative gradients) was used to control for any nonspecific increase in chemotaxis.

In test [3] the test system is untransduced-mock and pmY-GLP-1R transduced CD3^+ T cells. Kind of test: Seahorse bioenergetic analysis, mock and pmY-GLP-1R transduced CD3+ T cells. Type of test: cell-based, murine. The note with it: pmY-GLP-1R transduced vs untransduced-mock CD3^+ T cells, Exe-4 (1 nM). The procedure: Cellular Bioenergetics were analyzed using the Seahorse Extracellular Flux Analyzer Xfe96 (Agilent Technologies, Santa Clara, CA, United States), which simultaneously measures Oxygen Consumption Rate (OCR, pmolO2/min), ExtraCellular Acidification Rate (ECAR, mpH/min) and Proton Efflux Rate (PER, pmolH^+/min). For Seahorse experiments 150.000 cells either freshly isolated GLP-1R^pos or GLP-1R^neg CD3^+ T cells or activated with soluble anti-CD3/CD28 at 0.5 µg/ml each in the presence or not of Exe-4 (1 nM); in another setting untransduced mock CD3^+ T cells or pmY-GLP-1R CD3^+ T cells already activated with soluble anti-CD3/CD28 at 0.5 µg/ml each in the presence or not of Exe-4 (1 nM). Cells were resuspended in 50 µL assay medium (Agilent #103576-100 RPMI Medium pH7.4, supplemented with 10mM glucose, 2mM glutamine and 1mM Na-pyruvate) were seeded in each CellTak-precoated well of an Agilent Xfe96 Pro well plate. The cell plate was centrifuged 2 times at 40 × g (zero braking) for 1 minute. After centrifugation, 150 µL warm assay medium was gently added to each well. […]
Seahorse parameters were normalized to cell number in each well. To this purpose, at the end of the Seahorse analysis, cell nuclei were stained with Hoechst 33342 (1 µg/mL) for about 15 min, imaged and counted with Operetta CLS™ software Harmony, as previously described (43). […]

The subject of another test is Cardiac allografts. Description: Murine cardiac allotransplantation (BALB/c hearts into C57BL/6 mice). Type of test: in vivo. The procedure:
Cardiac allografts from BALB/c mice were transplanted intra-abdominally in C57BL/6 mice using microsurgical techniques as described (31). Rejection was determined as complete cessation of cardiac contractility and was confirmed by direct visualization. Transplanted mice were intraperitoneally injected according to the following protocols: 1) Exendin-4 (Exe-4) (Amylin Pharmaceuticals, San Diego, CA - USA) 0.2pg twice/day for two weeks after transplant; 2) Exe-4 0.2pg twice/day from the day before until two weeks after transplant; 3) Exe-4 2µg twice/day from the day before until two weeks after transplant; 4) Exe-4 2µg twice/day + Exendin-9-39 (Exe-9) (Sigma-Aldrich) 2µg twice/day from the day before until two weeks after transplant; 5) Exe-4 2µg twice/day from the day before until two weeks after transplant + Rapamycin 0.1mg/die for two weeks; 6) saline 0.5ml twice/day for two weeks.

On to Exendin-4 [Exe-4], for which, in test [1], the “Ror-yT on iTregs (iTreg stability)” value is recorded as “significant reduction”, the “Tbet on iTregs (iTreg stability)” value is “significant reduction” and the “Treg induction (percentage of FoxP3^+CD4^+CD25^+ Tregs)” value is “no substantial differences”. Besides, in test [2], the migratory potential result is on record as “reduced”. Further, in test [3], the “ATP production from mitochondrial respiration” value is on record as “significantly increased” and the OCR values result is reported as “significantly increased”. In the test with Cardiac allografts (day-7 heart allograft, Exe-4-treated mice), the “graft infiltration (Hematoxylin and eosin staining)” value is reported as “decrease of graft infiltration”. Also, the “[MST] (cardiac allograft survival)” value in the test with Cardiac allografts (first of three Exe-4 regimens listed 'respectively' (low or high dose, preceded or not with pre-treatment), untreated [MST]=7 days, p<0.01) turned out to be 9 days. Further, the “[MST] (cardiac allograft survival)” value in the test on Cardiac allografts (second of three Exe-4 regimens listed 'respectively', p<0.01 vs untreated) is 10 days. Moreover, in the test on Cardiac allografts (splenic, Exe-4-treated mice), the “CD4^+ and CD8^+ effector T cells” value is “significant decrease”; the Tregs result was “no effect”. Also, the “[MST] (cardiac allograft survival)” value in the test on Cardiac allografts (third of three Exe-4 regimens listed 'respectively', p<0.01 vs untreated) is recorded as 10 days.

The values above are taken from patent EP4623928A1, “GLP-1R ANTAGONISTS FOR THE TREATMENT OF CANCER” (Fiorina, Paolo, priority 2024, dated 2025).
